For the experiment, the target named is T1, SIK1 (Homo sapiens, UniProt P57059).
T1 construct: purchased Thermo Fisher Scientific (Life Technologies) SelectScreen
Nature of the experiment: SelectScreen LanthaScreen. Conditions: 1 µM. In kind it is binding. An outline of the steps:
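SelectScreen broad panel; activity (Z'LYTE, Adapta) plus binding formats. ATP: Km app for CSF1R Z'LYTE; 10 for CAMK1 Adapta. Readout = % per kinase.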
(TR-FRET usually uses a lanthanide donor and a delayed reading to cut background.)

T1 sequence (P57059 whole entry): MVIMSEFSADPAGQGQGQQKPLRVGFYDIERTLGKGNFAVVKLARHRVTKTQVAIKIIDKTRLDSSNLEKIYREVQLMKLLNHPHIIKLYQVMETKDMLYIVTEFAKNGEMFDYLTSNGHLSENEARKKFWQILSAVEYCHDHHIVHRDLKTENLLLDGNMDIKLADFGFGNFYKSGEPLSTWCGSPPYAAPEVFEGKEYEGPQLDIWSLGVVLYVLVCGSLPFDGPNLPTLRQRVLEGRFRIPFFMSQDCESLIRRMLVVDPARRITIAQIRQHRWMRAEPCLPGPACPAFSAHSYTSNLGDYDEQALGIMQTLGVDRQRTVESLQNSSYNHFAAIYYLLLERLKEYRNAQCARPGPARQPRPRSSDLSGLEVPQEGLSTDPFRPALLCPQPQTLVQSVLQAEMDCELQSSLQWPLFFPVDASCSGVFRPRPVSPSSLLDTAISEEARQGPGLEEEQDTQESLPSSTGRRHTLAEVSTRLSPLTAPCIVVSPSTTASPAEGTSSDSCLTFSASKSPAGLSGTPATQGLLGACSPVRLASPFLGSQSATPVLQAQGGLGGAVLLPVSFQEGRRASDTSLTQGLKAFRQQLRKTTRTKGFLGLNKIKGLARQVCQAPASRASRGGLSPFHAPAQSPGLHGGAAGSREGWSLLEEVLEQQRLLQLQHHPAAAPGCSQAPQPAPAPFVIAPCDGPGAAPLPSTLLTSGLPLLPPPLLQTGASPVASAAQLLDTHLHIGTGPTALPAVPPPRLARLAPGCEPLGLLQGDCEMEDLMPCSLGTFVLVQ

Take `CN(C(=O)CN1CCOCC1)c1ccc2sc3c(-c4cccc5c(=O)cc(N6CC7CCC(C6)O7)oc45)cccc3c2c1` [NU5455]: the “% displacement” value was found to be 1.3%.

The values above are taken from PMC6934184, “Selective DNA-PKcs inhibition extends the therapeutic index of localized radiotherapy and chemotherapy” (The Journal of Clinical Investigation, 2019).
